The values below come from PMC4444023 (PLoS ONE, 2015).

“And” between values parts separate entries of the source, which are not always exact repeats. Equal values may be shown once.

In assay [1] the target is T1, human nSMase2 (Homo sapiens, UniProt Q9NY59).
T1 sequence (Q9NY59 1-655): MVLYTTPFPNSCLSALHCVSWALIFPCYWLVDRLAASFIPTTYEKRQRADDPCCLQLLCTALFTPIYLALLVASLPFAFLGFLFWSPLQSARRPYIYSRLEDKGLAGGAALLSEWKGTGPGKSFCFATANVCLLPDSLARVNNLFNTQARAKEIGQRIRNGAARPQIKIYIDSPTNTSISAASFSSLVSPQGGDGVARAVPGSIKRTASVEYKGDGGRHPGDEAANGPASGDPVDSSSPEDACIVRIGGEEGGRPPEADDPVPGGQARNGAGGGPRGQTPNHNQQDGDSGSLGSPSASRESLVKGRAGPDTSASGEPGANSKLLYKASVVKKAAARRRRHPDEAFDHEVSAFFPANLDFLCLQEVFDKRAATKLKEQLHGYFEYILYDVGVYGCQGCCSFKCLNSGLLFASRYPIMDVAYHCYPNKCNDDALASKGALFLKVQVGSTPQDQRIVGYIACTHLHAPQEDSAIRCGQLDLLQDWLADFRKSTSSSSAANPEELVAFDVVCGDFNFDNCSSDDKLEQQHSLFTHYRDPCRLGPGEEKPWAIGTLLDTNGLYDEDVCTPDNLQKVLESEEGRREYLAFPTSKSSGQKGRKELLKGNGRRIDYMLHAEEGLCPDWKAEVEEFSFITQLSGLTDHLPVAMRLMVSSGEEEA
The experiment in a line: Fluorescence (Amplex red coupled) nSMase2 activity assay. It counts as biochemical. Also noted: Full length human nSMase2 cDNA with a C-terminal Flag tag; crude cell lysate used as enzyme. Here is the method: The production of the latter was coupled to a dephosphorylation reaction catalyzed by alkaline phosphatase (4 U/ml) to produce choline, followed by oxidation of choline by choline oxidase (0.1 U/ml) to produce betaine and H2O2, which in the presence of horseradish peroxidase (HRP, 1U/ml) and 50 μM Amplex red, generates the fluorescent molecule resorufin (Life Technologies). Substrate stock solution was prepared in 2% Triton X-100, vortexed and sonicated for 30 min. Reactions were carried out for 1 h at 37°C in 100 mM Tris-HCl pH 7.4, 10 mM MgCl2, 0.2% Triton X-100 and the generation of the fluorescent product was monitored by measuring relative florescence units (RFU) with excitation at 530 nm and emission at 590 nm (Fig 1). This assay was optimized for 384-well format (50 μl total volume per well) based on linearity of the enzymatic activity with respect to time, as well as substrate and enzyme concentrations. […] This fluorescence assay was used for compound screening and IC50 value determinations, based on duplicate eight-point dose response curves.

Assay [2] relates to rat primary hippocampal neurons. The experiment in a line: Hippocampal neuronal survival (Hoechst 33342). In kind it is cell-based. Here is the method:
All animal procedures were approved by the Johns Hopkins University Animal Care and Use Committee. Primary hippocampal neurons were prepared from day 18 decapitated embryos of Sprague-Dawley rats following previously described methods. Cells were seeded on polyethyleneimine (PEI)-coated slides in 12-well plates and cultured between 14–21 days. […] After 18 h, cells were stained with 50 μg/ml Hoeschst 33342 for 20 min and then fixed with 4% paraformaldehyde for 30 min. The number of living and apoptotic cells was determined by fluorescence microscopy. A minimum of 500 cells were counted per treatment condition. Results were normalized to control untreated cells and were representative of at least two independent experiments conducted in triplicate. Statistical evaluation of the data was done by Student’s t-test.

For assay [3], the target named is T1, human nSMase2. Briefly: 14C-SM confirmatory direct activity assay. In kind it is biochemical. Also noted: Full length human nSMase2 cDNA with a C-terminal Flag tag; host or cells: HEK293, stably transfected; crude cell lysate used as enzyme. The note with it: for human nSMase2 inhibitory activity of analog vs cambinol: SAR; for IC50: [14C]-SM direct activity assay, human recombinant enzyme. Here is the method:
This assay was dependent on the direct hydrolysis of ^14C-labeled SM (^14C N-methyl groups in the phosphorylcholine) by human nSMase2. Optimization of assay conditions was accomplished according to the methods of Barbone et al.. Briefly, bovine [N-methyl-^14C]-sphingomyelin (specific activity […], Perkin Elmer) and phosphatidylinositol (Avanti Polar Lipids) were evaporated to dryness under a stream of nitrogen and resuspended at an equimolar concentration of 0.1 mM in water with 0.5% Triton X-100 (Sigma). The solution was vortexed for 30 min and then sonicated for 30 min. Assay conditions were as follows: 50 μl total volume per reaction, consisting of 20 μM SM, reaction buffer (100 mM Tris-HCl pH 7.5, 80 mM MgCl2, 0.1% Triton X-100); 10 μl cell lysate containing recombinant human nSMase2 (0.5–1 μg protein/assay) and 5 μl of compound in reaction buffer containing 10% DMSO. After 1 h incubation at 37°C the reaction was terminated by the addition of 30 μl of water and 175 μl of chloroform/methanol (2:1, v:v), followed by vigorous vortexing. Tubes were centrifuged for 5 min at 10,000 xg at room temperature to separate the organic bottom phase containing labeled SM and the aqueous upper phase containing ^14C-labeled-phosphorylcholine. An aliquot (50 μl) of the upper phase was transferred to a vial with 10 ml of scintillant and counted for 2 min on a Beckman LS-6000IC scintillation counter. Enzyme activity was directly proportional to the disintegrations per min (dpm) resulting from the generation of ^14C-phosphorylcholine.

Assay [4] has as its system rat primary cortical neurons. Briefly: Lipid extraction and ceramide measurements (LC-MS/MS). It counts as cell-based. Here is the method:
Primary cortical neurons were prepared from embryonic day 18 Sprague-Dawley rats following previously described methods. […] A crude lipid extract from cortical neurons was obtained using a modified Bligh and Dyer procedure. Ceramide C12:0 (Avanti Polar Lipids) was included as an internal standard. The organic layers were dried in a nitrogen evaporator (Organomation Associates Inc.) and stored at -80°C. Dried organic layers were resuspended in methanol just prior to analysis. The detection and quantitation of individual ceramide species was performed on a high-performance liquid chromatography (HPLC) coupled electrospray ionization triple quadrupole mass spectrometer (API3000, AB Sciex Inc.) using settings similar to those described in previous studies. Samples were handled by a CTC PAL autosampler (LEAP Technologies Inc.) and injected into an HPLC (PerkinElmer) equipped with a reverse phase C18 column (Phenomex). […] The eluted sample was injected into the electrospray ionization source and detection of each ceramide species was conducted by multiple reaction monitoring. Spectral analysis was conducted using MultiQuant (AB Sciex Inc.), individually validated and normalized to the internal standard. Final data for each ceramide species in counts per second was expressed as the ratio of analyte/internal standard.

[5] abbreviates: 100 ng/ml IL1β 18 h, 10 µM compound.
Setting [6] is: 100 ng/ml IL1β 18 h, 25 µM compound.
Where [7] appears, read: 100 ng/ml TNFα 18 h, 10 µM compound.
Setting [8] is: 100 ng/ml TNFα 18 h, 25 µM compound.
The mark [9] stands for this setting: TNF-a: 100 ng/ml TNF-α for 2 min.

Regarding `C[S+](C)[O-]` [DMSO], the “human nSMase2 activity” value was 2703.2500 RFU and 2871.2510 RFU and 2454.0980 RFU and 2595.8260 RFU on human nSMase2 [1] (0.1% DMSO); 2256.2870 RFU and 2299.5150 RFU and 2360.8330 RFU and 2629.8220 RFU at human nSMase2 [1] (1% DMSO); 1706.1510 RFU and 1610.6720 RFU and 1424.4530 RFU and 1442.3390 RFU at human nSMase2 [1] (10% DMSO). The “inhibition of human nSMase2 activity” value at human nSMase2 [1] (DMSO up to 1%) is “no significant inhibition”.
As to `O=c1[nH]c(-c2ccccc2)c(Cc2c(O)ccc3ccccc23)c(=O)[nH]1` [compound 2], the “neuron survival, Mean (normalized to control untreated cells)” value came out at 79.08 in assay [2] (setting [5]), 81.7 in assay [2] (setting [6]), 76.55 in assay [2] (setting [7]) and 81.8 in assay [2] (setting [8]). The “%Inhibition” value at human nSMase2 [3] (Log [compound] -4.0) was -11.0% and -13.0%; at human nSMase2 [3] (Log [compound] -5.0) it was -11.0% and -12.0%; at human nSMase2 [3] (Log [compound] -6.0), -2.0% and -3.0%; on human nSMase2 [3] (Log [compound] -7.0) it was 3.0% and 0.0%; on human nSMase2 [3] (Log [compound] -9.0), 4.0%; on human nSMase2 [3] (Log [compound] -10.0), -1.0% and -2.0%. Besides, the “human nSMase2 inhibitory activity of analog vs cambinol” value at human nSMase2 [3] was “loss of activity”. The IC50 at human nSMase2 [3] was > 100 µM.
Consider `O=c1nc(SCc2ccccc2)[nH]c(-c2ccccc2)c1Cc1c(O)ccc2ccccc12` [compound 3], for which, at human nSMase2 [3], the “human nSMase2 inhibitory activity of analog vs cambinol” value is “loss of activity” and the IC50 was > 50 µM.
Take `O=c1cc(-c2ccccc2)[nH]c(=S)[nH]1` [compound 5]: at human nSMase2 [3], the IC50 was > 50 µM. The “increase in IC50 value” at human nSMase2 [3] (vs cambinol) came out at 10 fold.
As for `Cc1ccccc1-c1[nH]c(=S)[nH]c(=O)c1Cc1c(O)ccc2ccccc12` [compound 6], the “%Inhibition” value at human nSMase2 [3] (Log [compound] -4.0) was 95.0% and 94.0%; at human nSMase2 [3] (Log [compound] -5.0) it was 80.0% and 79.0%; on human nSMase2 [3] (Log [compound] -6.0) it was 22.0% and 21.0%; on human nSMase2 [3] (Log [compound] -7.0), 2.0% and 0.0%; at human nSMase2 [3] (Log [compound] -8.0) it was -8.0% and -11.0%; at human nSMase2 [3] (Log [compound] -9.0), -1.0% and -3.0%. Also, the “%Inhibition” value at human nSMase2 [3] (Log [compound] -10.0) is -11.0% and -10.0%. The IC50 at human nSMase2 [3] was determined as 3 µM.
In the case of `O=c1[nH]c(=S)[nH]c(-c2ccc(Br)cc2)c1Cc1c(O)ccc2ccccc12` [compound 7], the IC50 on human nSMase2 [3] is 2 ± 1 µM.
As for `O=c1[nH]c(=S)[nH]c(-c2cccc(Cl)c2)c1Cc1c(O)ccc2ccccc12` [compound 8], at human nSMase2 [3], the IC50 is 7 ± 1 µM.
`O=c1[nH]c(=S)[nH]c(-c2ccccc2F)c1Cc1c(O)ccc2ccccc12` [compound 9]: on human nSMase2 [3], the IC50 was found to be 6 ± 3 µM.
For the compound `O=P(O)(O)C(O)(Cn1ccnc1)P(=O)(O)O` [zoledronic acid, reference compound], the “neuron survival, Mean (normalized to control untreated cells)” value in assay [2] (setting [5]) is 84.88; in assay [2] (setting [6]), 85.75; in assay [2] (setting [7]) it was 80.07; in assay [2] (setting [8]) it was 81.28.
Consider TNF-α, for which, in assay [4] (setting [9]), the “Ceramide d18:1/16:0, ratio analyte/internal standard” value was 2.626 and 2.724 and 1.914 and 2.181 and 2.47 and 2.215; the “Ceramide d18:1/18:0, ratio analyte/internal standard” value was 9.562 and 9.737 and 7.685 and 8.892 and 9.601 and 8.529; the “Ceramide d18:1/20:0, ratio analyte/internal standard” value is 0.6563 and 0.629 and 0.4932 and 0.6036 and 0.6125 and 0.6685; the “Ceramide d18:1/22:0, ratio analyte/internal standard” value is 0.2034 and 0.2174 and 0.1793 and 0.213 and 0.2196 and 0.1978. Also, in assay [4] (setting [9]), the “Ceramide d18:1/24:0, ratio analyte/internal standard” value is 0.2705 and 0.2427 and 0.2002 and 0.2059 and 0.2011 and 0.2312; the “Ceramide d18:1/24:1, ratio analyte/internal standard” value was 0.2934 and 0.2773 and 0.185 and 0.2472 and 0.2529 and 0.2866; the “Dihexosylceramides d18:1/16:0, ratio analyte/internal standard” value is 0.0212 and 0.02618 and 0.02908 and 0.01607 and 0.02926 and 0.02318; the “Dihexosylceramides d18:1/18:0, ratio analyte/internal standard” value was 0.1307 and 0.1534 and 0.1151 and 0.09786 and 0.1336 and 0.132. For the same compound, in assay [4] (setting [9]), the “Dihydroceramides d18:0/18:0, ratio analyte/internal standard” value was 0.1552 and 0.1446 and 0.1353 and 0.136 and 0.1435 and 0.1236; the “Monohexosylceramides d18:1/16:0, ratio analyte/internal standard” value is 1.65E-01 and 1.78E-01 and 1.43E-01 and 1.25E-01 and 1.46E-01 and 1.28E-01; the “Monohexosylceramides d18:1/18:0, ratio analyte/internal standard” value is 8.33E-01 and 9.27E-01 and 8.86E-01 and 8.09E-01 and 8.11E-01 and 9.45E-01; the “Monohexosylceramides d18:1/20:0, ratio analyte/internal standard” value is 1.68E-01 and 1.71E-01 and 1.46E-01 and 1.34E-01 and 1.36E-01. In assay [4] (setting [9]), the “Monohexosylceramides d18:1/22:0, ratio analyte/internal standard” value was 6.26E-02 and 5.07E-02 and 4.08E-02 and 5.38E-02 and 5.08E-02 and 5.16E-02; the “Monohexosylceramides d18:1/24:0, ratio analyte/internal standard” value was 4.46E-02 and 4.59E-02 and 3.01E-02 and 3.48E-02 and 3.50E-02 and 3.93E-02; the “Monohexosylceramides d18:1/24:1, ratio analyte/internal standard” value was 9.28E-02 and 9.45E-02 and 8.80E-02 and 6.42E-02 and 8.57E-02 and 6.27E-02. In addition, the “effect on long chain ceramide levels” value in assay [4] (rat primary cortical neurons) is on record as “rapid increase”.
Consider phosphatidylserine, for which the “effect on human nSMase2 activity” value on human nSMase2 [1] (20 μM SM/PS at equimolar concentration (S5 Fig)) was “did not significantly affect”.
Turning to sphingomyelin [SM], the enzymatic activity on human nSMase2 [1] ([SM] 3.91 µM) was 212.26 RFU; at human nSMase2 [1] ([SM] 7.81 µM) it was 311.45 RFU; at human nSMase2 [1] ([SM] 15.63 µM) it was 459.12 RFU; on human nSMase2 [1] ([SM] 31.25 µM), 722.04 RFU; on human nSMase2 [1] ([SM] 62.50 µM), 1075.56 RFU; on human nSMase2 [1] ([SM] 125.00 µM), 1331.12 RFU. For the same compound, the enzymatic activity came out at 1431.87 RFU on human nSMase2 [1] ([SM] 250.00 µM) and 1408.02 RFU on human nSMase2 [1] ([SM] 500.00 µM).

Broadly, the %Inhibition is the relative decrease from the control value, in per cent. One may read the IC50 as the concentration that inhibits the measured activity by half.
